Experimental data reported in US20170312200A1, “AN AGENT FOR IMPROVING MITOCHONDRIAL FUNCTION” (SHOWA DENKO K.K., priority 2014, published 2017).

Columns and labels:
Format in all cases: cell-based
[1] = test system: human skin fibroblasts NB1-RGB cells; assay: Effect on promoting elastin production (Elastin Assay Kit); settings: aged cells, 48 hours, normal cell = 1.00
Method: It is known that elastin is a fiber-like protein, which has a main function of crosslinking collagen, is present in the dermis of the skin, blood vessels, ligaments, and the like, and provides elasticity to the skin. The effect of a hydroxycitric acid derivative on elastin production was examined by the following method. The aged cells and normal, unprocessed cells which were produced in Example 1 were prepared at a seeding density of 4,000 cells/cm^2 and cultured for 24 hours in the DMEM medium containing 10% fetal bovine serum. The hydroxycitric acid derivatives according to the present invention which were dissolved in 50% ethanol to the final concentration of 0 μM (for a control), 0.01 μM, and 0.1 μM were added to the DMEM medium containing 10% fetal bovine serum, and culturing was performed for 48 hours. After that, cells were collected, elastin was extracted using Elastin Assay Kit manufactured by Biocolor Ltd., and an absorbance of the extracted solution was measured at a wavelength of 513 nm.

[2] = test system: human skin fibroblasts NB1-RGB cells; assay: Effect on mitochondrial function improvement (JC-1 red/green fluorescence, mitochondrial membrane potential); settings: aged cells (600 μM hydrogen peroxide), specimen 10 μM, 48 hours; relative value with normal cells as 1
Method: The effect on mitochondrial function improvement in human skin fibroblasts NB1-RGB cells was measured under the following conditions using a mitochondrial membrane potential as an index. By performing an operation for 4 days in which confluent NB1-RGB cells were cultured for one hour in a DMEM medium containing 10% fetal bovine serum and 600 μM hydrogen peroxide solution, cells induced of artificial aging by oxidation were prepared as aged cells. These aged cells and normal, unprocessed cells were prepared at a seeding density of 4,000 cells/cm^2 and cultured for 24 hours in the DMEM medium containing 10% fetal bovine serum. […] After changing a medium to new assay solution supplied in Assay Kit, a fluorescence intensity of the living cells was measured at an excitation wavelength of 520 to 570 nm and a fluorescence wavelength of 570 to 610 nm, and the dead cells at an excitation wavelength of 485 nm and a fluorescence wavelength of 535 nm. In order to evaluate the state of mitochondrial membrane potential, red fluorescence intensity and green fluorescence intensity of a cell group to be measured were measured, and values of red fluorescence intensity divided by green fluorescence intensity were calculated, and their relative values, with a measured value of the normal cells as 1, are shown in Table 3. […]

[3] = test system: human skin fibroblasts NB1-RGB cells; assay: Measurement of cells in which apoptosis had been caused (JC-1 green fluorescence, mitochondrial membrane potential as index); settings: aged cells (600 μM hydrogen peroxide), specimen 10 μM, 48 hours; relative value with normal cells as 1
Method: The effect on mitochondrial function improvement in human skin fibroblasts NB1-RGB cells was measured under the following conditions using a mitochondrial membrane potential as an index. By performing an operation for 4 days in which confluent NB1-RGB cells were cultured for one hour in a DMEM medium containing 10% fetal bovine serum and 600 μM hydrogen peroxide solution, cells induced of artificial aging by oxidation were prepared as aged cells. These aged cells and normal, unprocessed cells were prepared at a seeding density of 4,000 cells/cm^2 and cultured for 24 hours in the DMEM medium containing 10% fetal bovine serum. […] After changing a medium to new assay solution supplied in Assay Kit, a fluorescence intensity of the living cells was measured at an excitation wavelength of 520 to 570 nm and a fluorescence wavelength of 570 to 610 nm, and the dead cells at an excitation wavelength of 485 nm and a fluorescence wavelength of 535 nm. In order to obtain a ratio of dead cells in which apoptosis had been caused, only the green fluorescence intensity of a cell group to be measured was measured, and relative values, with a measured value of the normal cells as 1, are shown in Table 2.

Compound	Relative absorbance (513 nm) (elastin production) ([1]; specimen 0.01 μM)	Relative absorbance (513 nm) (elastin production) ([1]; specimen 0.1 μM)	Relative fluorescence intensity (red fluorescence intensity divided by green fluorescence intensity; effect on mitochondrial function improvement) [2]	Relative fluorescence intensity (green fluorescence of dead cells in which apoptosis had been caused) [3]
Hydroxycitric acid-2-palmitate	1.11	1.06	0.72	1.04
CCCCCCCCCCCCCC(=O)OC(CC(=O)O)(C(=O)O)C(O)C(=O)O (centres unmarked) [Hydroxycitric acid-2-myristate]	0.93	0.94	0.66	1.13
